Experimental data: BigSolDB 2.1

CO/N=C(\C(=O)Sc1nc2ccccc2s1)c1csc(N)n1
Details	solubility (mole fraction)
in 1,2-dichloroethane, 277.83 K	0.000358
in 1,2-dichloroethane, 282.77 K	0.000458
in 1,2-dichloroethane, 287.63 K	0.000619
in 1,2-dichloroethane, 292.84 K	0.000876
in 1,2-dichloroethane, 297.85 K	0.00118
in 1,2-dichloroethane, 302.64 K	0.00154
in THF, 278.4 K	0.0243
in THF, 283.75 K	0.0259
in THF, 288.8 K	0.028
in THF, 293.25 K	0.0311
in THF, 298.06 K	0.0352
in THF, 302.95 K	0.0397
in acetone, 278.32 K	0.00245
in acetone, 283.31 K	0.00286
in acetone, 288.15 K	0.00334
in acetone, 293.2 K	0.0039
in acetone, 298.54 K	0.00472
in acetone, 303.28 K	0.0057
in acetonitrile, 279.45 K	0.000216
in acetonitrile, 283.46 K	0.000262
in acetonitrile, 288.45 K	0.000342
in acetonitrile, 292.98 K	0.000451
in acetonitrile, 297.47 K	0.000581
in acetonitrile, 302.45 K	0.000761
in dichloromethane, 278.6 K	0.000719
in dichloromethane, 283.64 K	0.000967
in dichloromethane, 288.46 K	0.00128
in dichloromethane, 294.03 K	0.00171
in dichloromethane, 298.71 K	0.00217
in dichloromethane, 303.44 K	0.00267
